Measurements as given in patent US6166050A, “3,4-diamino-3-cyclobutene-1,2-dione derivatives which inhibit leukocyte adhesion mediated by VLA-4” (American Home Products Corporation, priority 1999, dated 2000).
Read-outs that look alike come from different tables or passages of the source.

Target: T1, α4 β1 integrin (VLA-4) (Homo sapiens, UniProt P05556+P13612)
T1 construct: Jurkat cells (ATCC #TIB-153) which express high levels of α4 β1 integrin (VLA-4); host or cells: Jurkat cells
Test: Monovalent FACS Assay for α4 β1 Integrin/VCAM-1 Binding (inhibition of soluble VCAM-1 binding to Jurkat cells)
Method: The foregoing compounds were tested for VLA-4 binding activity using the following monvalent FACS assay. The IC50 for a compound reflects 50% receptor occupancy.
Monovalent FACS Assay for α4 β1 Integrin/VCAM-1 Binding
The VLA-4 binding activity of exemplary compounds was measured by measuring the inhibition of the interaction of soluble VCAM-1 with Jurkat cells (ATCC #TIB-153) which express high levels of α4 β1 integrin (VLA-4) using a modification of the fluorescence activated cell sorter (FACS) assay described by Yednock, et al., J. Biol. Chem., 1995, 270:28740. VCAM-1 interacts with the cell surface in an α4 β1 integrin-dependent fashion.
Jurkat cells were grown in RPMI 1640 supplemented with 10% fetal bovine serum, penicillin, streptomycin and glutamine as described by Yednock, supra.
Recombinant soluble VCAM-1 (rsVCAM-1) was produced in a baculovirus expression system as a chimeric fusion protein containing the seven immunoglobulin domains of VCAM-1 on the N-terminus and the human IgG1 heavy chain constant region on the C-terminus as described by Yednock, supra. Supernatant containing approximately 10 ug/ml rsVCAM-1 was collected after 72 hours and used in the assay without purification.
Jurkat cells (approximately 10^7 cells/ml) were treated with 1.5 mM MnCl2 and 5 μg/ml 15/7 for 30 minutes on ice to activate β1 integrin. Mn^+2 activates the receptor to enhance ligand binding, and 15/7 is a monoclonal antibody that recognizes an activated/ligand occupied conformation of α4 β1 integrin and locks the molecule into this conformation thereby stabilizing the VCAM-1/α4 β1 integrin interaction. Yednock, et al., supra. Antibodies similar to 15/7 have been prepared and may be used in this assay. For example, see, Luque, et al., 1996, J. Bio. Chem., 271: 11067.
Aliquots of 25 μl cells were incubated for 30 minutes at room temperature with compounds using a standard 5-point serial dilution. 15 μl of rsVCAM-Fc-containing baculovirus supernatant was added to the cells and incubated for 30 minutes on ice as described in Yednock, et al., supra.
Cells were washed twice and resuspended in 100 μl of a 1:100 dilution of FITC-conjugated goat anti-human IgG to detect the human Ig-VCAM-1 construct diluted in assay media containing 2.5% mouse serum to block potential cross-reactivity with cell surface bound 15/7. Cells were incubated on ice for 30 minutes in the dark. Cells were washed twice and analyzed with a standard FACS analysis as described in Yednock, et al., supra. on a FACScan flow cytometer (Becton Dickinson, Mountain View, Calif.).

[1] = Jurkat cells, rsVCAM-1, IC50 reflects 50% receptor occupancy, unit μM, read-out: IC50 (FACS)
[2] = Jurkat cells, rsVCAM-1, IC50 reflects 50% receptor occupancy, unit nM, read-out: IC50 (FACS)

T1 sequence (P13612 34-1032): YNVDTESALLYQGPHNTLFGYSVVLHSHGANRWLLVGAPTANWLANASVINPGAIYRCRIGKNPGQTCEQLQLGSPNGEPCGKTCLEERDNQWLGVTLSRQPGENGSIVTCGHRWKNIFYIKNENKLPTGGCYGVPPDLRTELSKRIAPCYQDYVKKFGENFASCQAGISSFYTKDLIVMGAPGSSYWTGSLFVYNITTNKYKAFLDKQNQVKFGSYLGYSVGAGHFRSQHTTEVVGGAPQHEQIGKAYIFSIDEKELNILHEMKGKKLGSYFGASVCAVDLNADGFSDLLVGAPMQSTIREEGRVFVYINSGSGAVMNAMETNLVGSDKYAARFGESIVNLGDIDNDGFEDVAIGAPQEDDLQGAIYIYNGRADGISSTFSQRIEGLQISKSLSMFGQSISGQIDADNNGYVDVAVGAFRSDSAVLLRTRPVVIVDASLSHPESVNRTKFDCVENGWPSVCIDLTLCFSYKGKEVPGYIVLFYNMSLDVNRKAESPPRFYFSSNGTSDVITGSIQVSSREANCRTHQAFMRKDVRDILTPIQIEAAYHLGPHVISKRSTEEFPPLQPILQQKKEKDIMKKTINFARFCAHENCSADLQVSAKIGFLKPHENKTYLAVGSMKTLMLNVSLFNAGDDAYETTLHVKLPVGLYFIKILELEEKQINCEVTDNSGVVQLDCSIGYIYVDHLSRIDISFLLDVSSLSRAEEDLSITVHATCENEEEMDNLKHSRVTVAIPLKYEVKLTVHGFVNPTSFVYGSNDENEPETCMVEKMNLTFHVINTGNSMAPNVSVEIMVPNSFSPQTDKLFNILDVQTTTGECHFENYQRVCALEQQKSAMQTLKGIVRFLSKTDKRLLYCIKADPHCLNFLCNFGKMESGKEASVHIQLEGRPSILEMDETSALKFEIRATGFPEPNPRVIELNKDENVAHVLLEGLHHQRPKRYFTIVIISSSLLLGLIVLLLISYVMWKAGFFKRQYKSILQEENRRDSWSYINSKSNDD
T1 sequence (P05556 21-798): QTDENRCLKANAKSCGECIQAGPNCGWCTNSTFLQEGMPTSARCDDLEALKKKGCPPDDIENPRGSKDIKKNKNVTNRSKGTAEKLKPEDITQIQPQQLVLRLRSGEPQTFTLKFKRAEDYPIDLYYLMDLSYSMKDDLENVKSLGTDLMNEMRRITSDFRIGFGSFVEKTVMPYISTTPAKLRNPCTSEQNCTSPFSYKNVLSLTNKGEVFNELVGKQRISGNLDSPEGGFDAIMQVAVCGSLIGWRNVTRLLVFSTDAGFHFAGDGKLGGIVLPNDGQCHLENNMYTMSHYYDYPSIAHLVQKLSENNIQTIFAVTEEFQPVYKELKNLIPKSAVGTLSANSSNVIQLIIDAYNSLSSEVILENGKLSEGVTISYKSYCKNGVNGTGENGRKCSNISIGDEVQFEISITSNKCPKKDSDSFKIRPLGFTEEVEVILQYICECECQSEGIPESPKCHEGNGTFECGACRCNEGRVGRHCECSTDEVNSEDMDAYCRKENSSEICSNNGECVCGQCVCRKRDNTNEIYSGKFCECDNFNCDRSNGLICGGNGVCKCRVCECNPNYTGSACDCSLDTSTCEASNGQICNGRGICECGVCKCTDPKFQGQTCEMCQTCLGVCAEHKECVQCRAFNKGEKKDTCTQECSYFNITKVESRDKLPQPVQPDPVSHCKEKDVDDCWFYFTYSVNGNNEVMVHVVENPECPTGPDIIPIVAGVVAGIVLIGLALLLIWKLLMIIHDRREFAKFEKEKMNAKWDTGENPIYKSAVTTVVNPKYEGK

IC50 [1] [µM] | IC50 [2] [µM] | Compound | also measured
116 | – | O=C(O)[C@H](Cc1ccccc1)Nc1c(NCc2cccnc2)c(=O)c1=O [Example 9, {3,4-Dioxo-2-[(pyridin-3-ylmethyl)-amino]-cyclobut-1-enyl}-L-phenylalanine] | –
9 | – | CN(CCc1ccncc1)c1c(N[C@@H](Cc2ccccc2)C(=O)O)c(=O)c1=O [Example 50, N-{2-[Methyl-(2-pyridin-4-yl-ethyl)-amino]-3,4-dioxo-cyclobut-1-enyl}-L-phenylalanine] | –
– | 0.0022 | CN(CCc1ccccc1)c1c(N[C@@H](Cc2ccc(NC(=O)c3ccncc3)cc2)C(=O)O)c(=O)c1=O [Example 37, N-[2-[Methyl(2-phenylethyl)amino]-3,4-dioxo-1-cyclobuten-1-yl]-4-[(4-pyridinylcarbonyl)amino]-L-phenylalanine] | –
58 | – | O=C(O)[C@H](Cc1ccccc1)Nc1c(NCc2ccccc2)c(=O)c1=O [Example 3, [2-(Benzylamino)-3,4-dioxo-cyclobut-1-enyl]-L-phenylalanine] | –
52 | – | O=C(O)[C@H](Cc1ccccc1)Nc1c(NCCc2c[nH]c3ccccc23)c(=O)c1=O [Example 7, 2-{2-[2-(1H-Indol-3-yl)-ethylamino]-3,4-dioxo-cyclobut-1-enylamino}-L-phenylalanine] | –
36 | – | CCCCCCN(Cc1ccc2ccccc2c1)c1c(N[C@@H](Cc2ccccc2)C(=O)O)c(=O)c1=O [Example 17, (S)-2-[2-(Hexyl-naphthalen-2-ylmethyl-amino)-3,4-dioxo-cyclobut-1-enylamino]-3-phenyl-propionic acid] | –
86 | – | O=C(O)[C@H](Cc1ccccc1)Nc1c(N2CCN(c3ccccc3)CC2)c(=O)c1=O [Example 21, N-[3,4-Dioxo-2-(4-phenyl-piperazin-1-yl)-cyclobut-1-en-1-yl]-L-phenylalanine] | –
101 | – | O=C(O)[C@H](Cc1ccccc1)Nc1c(NC(c2ccccc2)c2ccccc2)c(=O)c1=O [Example 5, [2-(benzhydrylamino)-3,4-dioxo-cyclobut-1-enyl]-L-phenylalanine] | –
4.4 | – | CCCCCCN(Cc1ccccc1)c1c(N[C@@H](Cc2ccccc2)C(=O)O)c(=O)c1=O [Example 11, [2-(Benzyl-hexyl-amino)-3,4-dioxo-cyclobut-1-enyl]-L-phenylalanine] | –
13 | – | CCCCCCN(Cc1ccc(N(C)C)cc1)c1c(N[C@@H](Cc2ccccc2)C(=O)O)c(=O)c1=O [Example 19, (S)-2-{2-[(4-Dimethylamino-benzyl)-hexyl-amino]-3,4-dioxo-cyclobut-1-enylamino}-3-phenyl-propionic acid] | –
4.4 | – | O=C(O)[C@H](Cc1ccccc1)Nc1c(N(Cc2ccccc2)Cc2ccccc2)c(=O)c1=O [Example 13, (2-Dibenzylamino-3,4-dioxo-cyclobut-1-enylamino)-L-phenylalanine] | –

Continued, molecule first:

Compound | IC50 [1] [µM] | IC50 [2] [µM] | also measured
CCCCCCN(CCCCCC)c1c(N[C@@H](Cc2cn(Cc3ccccc3)cn2)C(=O)O)c(=O)c1=O [Example 29, (S)-3-(1-Benzyl-1H-imidazol-4-yl)-2-(2-dihexylamino-3,4-dioxo-cyclobut-1-enylamino)-propionic acid] | – | 0.631 | –
CCCCCCN(CCCCCC)c1c(N[C@@H](Cc2ccc(NC(=O)c3cccnc3)cc2)C(=O)O)c(=O)c1=O [Example 44, N-[2-(Dihexylamino)-3,4-dioxo-1-cyclobuten-1-yl]-4-[(3-pyridinylcarbonyl)amino]-L-phenylalanine] | – | 0.0065 | –
CN(Cc1cccnc1)c1c(N[C@@H](Cc2ccc(NC(=O)c3ccncc3)cc2)C(=O)O)c(=O)c1=O [Example 41, N-[2-(Methyl-pyridin-3-ylmethyl-amino)-3,4-dioxo-cyclobut-1-enyl]-4-[(pyridine-4-carbonyl)-amino]-L-phenylalanine] | – | 0.026 | –
CCCCCCN(CCCCCC)c1c(N[C@@H](Cc2ccc(NC(=O)c3ccncc3)cc2)C(=O)O)c(=O)c1=O [Example 39, N-[2-(Dihexylamino)-3,4-dioxo-1-cyclobuten-1-yl]-4-[(4-pyridinylcarbonyl)amino]-L-phenylalanine] | – | 0.0013 | –
CCCCCCN(CCCCCC)c1c(N[C@@H](Cc2ccc(NC(=O)c3ccccc3)cc2)C(=O)O)c(=O)c1=O [Example 26, (S)-3-(4-Benzoylamino-phenyl)-2-(2-dihexylamino-3,4-dioxo-cyclobut-1-enylamino)-propionic acid] | – | 0.15 | –
CC(=O)N1CCN(c2c(N[C@@H](Cc3ccccc3)C(=O)O)c(=O)c2=O)CC1 [Example 23, (S)-2-[2-(4-Acetyl-piperazin-1-yl)-3,4-dioxo-cyclobut-1-enylamino]-3-phenyl-propionic acid] | 40 | – | –
CCCCCCN(CCCCCC)c1c(N[C@@H](Cc2ccc(OCCCN(C)C)cc2)C(=O)O)c(=O)c1=O [Example 32, N-(2-Dihexylamino-3,4-dioxo-cyclobut-1-enylamino)-O-(3-dimethylamino-propyl)-L-tyrosine] | – | 0.012 | –
CN(C)C(=O)Oc1ccc(C[C@H](Nc2c(N(C)Cc3cccnc3)c(=O)c2=O)C(=O)O)cc1 [Example 61, (2S)-3-(4-Dimethylcarbamoyloxy-phenyl)-2-[2-(methyl-pyridin-3-ylmethyl-amino)-3,4-dioxo-cyclobut-1-enylamino]-propionic acid] | – | 0.0083 | –
CN(C)C(=O)Oc1ccc(C[C@H](Nc2c(N(C)CCc3ccncc3)c(=O)c2=O)C(=O)O)cc1 [Example 63, (2S)-3-(4-Dimethylcarbamoyloxy-phenyl)-2-{2-[methyl-(2-pyridin-4-yl-ethyl)-amino]-3,4-dioxo-cyclobut-1-enylamino}-propionic acid] | – | 0.0016 | –
CN(C)C(=O)Oc1ccc(C[C@H](Nc2c(N(C)CCc3ccccc3)c(=O)c2=O)C(=O)O)cc1 [Example 57] | – | 0.0009 | –
CCCCCCN(CCCCCC)c1c(N[C@@H](Cc2ccccc2)C(=O)O)c(=O)c1=O [Example 15, (S)-2-(2-Dihexylamino-3,4-dioxo-cyclobut-1-enylamino)-3-phenyl-propionic acid] | 1.5 | – | –
CCCCCCN(CCCCCC)c1c(N[C@@H](Cc2ccc(NC(=O)C3CCN(C(=O)OCc4ccccc4)CC3)cc2)C(=O)O)c(=O)c1=O [Example 53] | – | 0.071 | –
CN(CCc1ccncc1)c1c(N[C@@H](Cc2ccc(NC(=O)c3ccncc3)cc2)C(=O)O)c(=O)c1=O [Example 35, N-[2-[Methyl[2-(4-pyridinyl)ethyl]amino]-3,4-dioxo-1-cyclobuten-1yl]-4-[(4-pyridinylcarbonyl)amino]-L-phenylalanine] | – | 0.015 | –
CN1CCN(C(=O)Oc2ccc(C[C@H](Nc3c(N(C)CCc4ccccc4)c(=O)c3=O)C(=O)O)cc2)CC1 [Example 66, (2S)-3-[4-(4-methylpiperazinyl)carbamoyloxy-phenyl]-2-[2-(methyl-phenethyl-amino)-3,4-dioxo-cyclobut-1-enylamino]-propionic acid] | – | – | IC50: 0.0005 µM
CCCCCCN(CCCCCC)c1c(N[C@@H](Cc2ccc(OC(=O)N(C)C)cc2)C(=O)O)c(=O)c1=O [Example 59, (2S)-2-(2-Dihexylamino-3,4-dioxo-cyclobut-1-enylamino)-3-(4-dimethylcarbamoyloxy-phenyl)-propionic acid] | – | 0.0006 | –
CCCCCCN(CCCCCC)c1c(N[C@@H](Cc2ccc(OC(=O)N3CCN(C)CC3)cc2)C(=O)O)c(=O)c1=O [Example 70] | – | 0.0002 | –
CN1CCN(C(=O)Oc2ccc(C[C@H](Nc3c(N(C)CCc4ccncc4)c(=O)c3=O)C(=O)O)cc2)CC1 [Example 68, (2S)-3-[4-(4-methylpiperazinyl)carbamoyloxy-phenyl)-2-{2-[methyl-(2-pyridin-4-yl-ethyl)-amino]-3,4-dioxo-cyclobut-1-enylamino}-propionic acid] | – | – | IC50: 0.0013 µM
CN(Cc1cccnc1)c1c(N[C@@H](Cc2ccc(NC(=O)c3cccnc3)cc2)C(=O)O)c(=O)c1=O [Example 48, N-[2-(Methyl-pyridin-3-ylmethyl-amino)-3,4-dioxo-cyclobut-1-enyl]-4-[(pyridine-3-carbonyl)-amino]-L-phenylalanine] | – | 0.16 | –
CN(CCc1ccncc1)c1c(N[C@@H](Cc2ccc(NC(=O)c3cccnc3)cc2)C(=O)O)c(=O)c1=O [Example 46] | – | 0.04 | –
